In series [1] the test system is MCF-7 cells. The experiment in a line: Concentration-dependent cellular uptake of neurosteroids into MCF-7 cells, Michaelis-Menten / Eadie-Hofstee analysis. It is filed as cell-based, human. Particulars: 5–200 µM; for Transport Mechanism Type 1 Vmax / Km / Transport Mechanism Type 2 Vmax: 30 min, 37 °C, Eadie-Hofstee plot analysis. The method, then: MCF-7 human breast adenocarcinoma cells (HTB-22; RRID: CVCL_0031) were purchased from the American Type Culture Collection (ATCC, Manassas, VA, USA). The cells were cultured in standard conditions (37 °C, 5% CO2) using Dulbecco’s modified Eagle medium (DMEM) supplemented with L-glutamine (2 mM), heat-inactivated fetal bovine serum (10%), penicillin (50 U/mL), and streptomycin (50 μg/mL). Once the cells reached 80% confluence in culture bottles (75 cm^2), the cells were washed twice with DPBS solution and harvested by trypsinization. All the following experiments were carried out with passage number 9–22.
Concentrations of neurosteroids (1–11) were determined by HPLC.
5.03 software (GraphPad Software, San Diego, CA, USA).

Series [2] deals with efflux transporters (P-gp, BCRP, MRPs). The experiment in a line: Cellular uptake into MCF-7 cells in the presence of efflux inhibitors (elacridar, MK-571). The following applies: 25 µM compound; for Efflux transporter substrate status: 50 µM elacridar and MK-571, pH 7.4, MCF-7 cells.
Method: The competitive uptake of 25 µM neurosteroids (1–11) in the presence of efflux inhibitors, 50 µM elacridar (P-gp and BCRP), and 50 µM MK-571 (MRPs) at pH 7.4 was carried out as described above, and the concentrations of studied compounds were analyzed with HPLC methods (below), calculated according to the standard curve, and normalized with protein concentration measured to each 24-well plate.
Concentrations of neurosteroids (1–11) were determined by HPLC. The apparatus was comprised of an Agilent 1100 binary pump (Agilent Technologies Inc., Wilmington, DE, USA), 1100 micro vacuum degasser, HP 1050 Auto-sampler, HP 1050 variable wavelength detector, operating at 225 nm. The chromatographic separations were achieved on a Supelco Supelcosil LC-Si analytical column (4.6 mm x 250 mm, 5 ml) (Supelco Inc., Bellefonte, PA, USA) by using isocratic elution of water containing 0.1% phosphoric acid and ACN with ratio of 30:70. The retention times of the compounds were ca. 4.3–4.4 min at the flow rate of 1.0 mL/min at room temperature. […] These HPLC methods were accurate (100 ± 10% of nominal concentration), precise (RSD% <10%), and selective (no interfering peaks) over the range 0.1–2 μM.
All data analyses, including Michaelis-Menten and Eadie-Hofstee analyses, were performed using GraphPad Prism v. […] Statistical differences between groups were tested using one-way ANOVA, followed by a two-tailed Tukey’s multiple comparison test and presented as mean ± SD, with statistically significant difference denoted by * p < 0.05, ** p < 0.01, *** p < 0.001.
Series [3] has as its system MCF-7 cells. The following applies: human, 30 min, 25 µM.
Method: For the cellular uptake experiments, MCF-7 cells were seeded at the density of 1 × 10^5 cells/well onto 24-well plates a day before the experiments. Cellular uptake of neurosteroids (1–11) dissolved in DMSO and diluted with HBSS or MES buffer containing 5% 2-hydroxypropyl-β-cyclodextrin (HP-β-CD) was studied by incubating the cells with the pre-warmed compound solutions (250 μL) at the concentrations of 1–200 μM, at pH 7.4 (HBSS buffer), or in parallel at 5.0 (MES buffer), at 37 °C for 30 min (uptake was linear with all compounds up to 30 min). Subsequently, the cells were washed three times with ice-cold buffer and lysed with 250 μL of NaOH (0.1 M) for 60 min. The lysates were diluted with acetonitrile (ACN) with a ratio of 1:3 and centrifuged at 10,000× g for 10 min. The samples were analyzed by high-performance liquid chromatography (HPLC) methods described below. The concentrations of each compound were calculated from the standard curve and normalized to protein concentration in each 24-plate that was determined as a mean of three samples by Bio-Rad Protein Assay, based on the Bradford dye-binding method, using BSA as a standard protein and measuring the absorbance (595 nm) by multiplate reader (EnVision, Perkin Elmer, Inc., Waltham, MA, USA).
Concentrations of neurosteroids (1–11) were determined by HPLC. […]
A further series relates to OATP1A2. Set-up: method as in PMID 31254566; Vmax: unit not given here. Particulars: reference substrate; cited from earlier work.
The mark [4] stands for this setting: read-out: Transport Mechanism Type 1 Km.
Setting [5] is: read-out: Transport Mechanism Type 2 Km.

Where “and” joins values, the source holds several entries; their conditions need not be identical. Equal entries are not always repeated. Where two headings read alike, the source gives them in different places.

In general, Km refers to the substrate concentration at which the rate is half of its maximum.

In the case of `CC(=O)[C@H]1CCC2C3CC[C@@H]4C[C@H](O)CC[C@]4(C)C3CC[C@@]21C` (stereo partly drawn) [Compound 1, 3α5β-Pregnanolone, reference compound], the “Transport Mechanism Type 1 Vmax” value in the series on MCF-7 cells [1] came to 26.3 ± 4.2 pmol/mg/min. In addition, the Michaelis constant (Km) with MCF-7 cells [1] (setting [4]) came to 55.4 µM. The “Efflux transporter substrate status” value in series [2] is on record as “substrates for all studied efflux transporters”.

In the case of `CC(=O)[C@H]1CCC2C3CC[C@@H]4C[C@H](OC(=O)[C@@H](N)CCC(=O)O)CC[C@]4(C)C3CC[C@@]21C` (some centres unmarked) [Compound 2], in the series with MCF-7 cells [1], the “Uptake profile over concentration (saturation of transporter)” value is “did not reach the saturation stage”. Also, the “Efflux transporter substrate status” value in series [2] is “efflux phenomenon can be abolished”. Also, the “Cellular uptake in the presence of efflux inhibitors elacridar or MK-571” value in series [2] (50 µM inhibitor, pH 7.4, MCF-7 cells) is “not affected”.

Turning to `C[C@@]12CCCC1C1CC[C@@H]3C[C@H](OC(=O)[C@@H](N)CCC(=O)O)CC[C@]3(C)C1CC2` (some centres unmarked) [Compound 3], in the series with MCF-7 cells [1], the “Transport Mechanism Type 1 Vmax” value was 3.0 pmol/mg/min and 3.0 ± 0.4 pmol/mg/min; the “Transport Mechanism Type 2 Vmax” value was 8.2 pmol/mg/min and 8.2 ± 0.1 pmol/mg/min. For the same molecule, the Michaelis-Menten constant (Km) in the series with MCF-7 cells [1] (setting [4]) worked out at 7.7 µM. Moreover, in the series with MCF-7 cells [1] (setting [5]), the Km is 25.2 µM.

As for `C[C@H]1CCC2C3CC[C@@H]4C[C@H](NC(=O)CC(=O)O)CC[C@]4(C)C3CC[C@@]21C` (some centres unmarked) [Compound 4], the “Transport Mechanism Type 1 Vmax” value in the series with MCF-7 cells [1] is recorded as 13.9 ± 6.7 pmol/mg/min. For the same molecule, the Km with MCF-7 cells [1] (setting [4]) is approximately 233 µM.

For `CC(C)(C)OC(=O)N[C@@H](CO)C(=O)N[C@@H]1CC[C@]2(C)C3CC[C@]4(C)CCCC4C3CC[C@@H]2C1` (some centres unmarked) [Compound 5], the “Transport Mechanism Type 1 Vmax” value with MCF-7 cells [1] was 5.3 pmol/mg/min and 5.3 ± 0.4 pmol/mg/min. Moreover, in the series on MCF-7 cells [1], the “Transport Mechanism Type 2 Vmax” value worked out at 34.7 ± 7.7 pmol/mg/min. Also, the Michaelis-Menten constant (Km) in the series with MCF-7 cells [1] (setting [4]) is 76.4 µM; in the series with MCF-7 cells [1] (setting [5]) it was approximately 960 µM.

Turning to `C[C@@]12CCCC1C1CC[C@@H]3C[C@H](NC(=O)CCC(=O)O)CC[C@]3(C)C1CC2` (some centres unmarked) [Compound 6], in the series with MCF-7 cells [1], the “Transport Mechanism Type 1 Vmax” value stood at 3.9 ± 0.5 pmol/mg/min and the “Transport Mechanism Type 2 Vmax” value is 10.2 ± 0.1 pmol/mg/min.

Consider `CC(C)(C)OC(=O)N[C@@H](CC(=O)O)C(=O)N[C@@H]1CC[C@]2(C)C3CC[C@]4(C)CCCC4C3CC[C@@H]2C1` (some centres unmarked) [Compound 7], for which the “Transport Mechanism Type 1 Vmax” value in the series with MCF-7 cells [1] is given as 3.0 ± 0.1 pmol/mg/min.

For `C[C@@]12CCCC1C1CC[C@@H]3C[C@H](NC(=O)[C@@H](N)CC(=O)O)CC[C@]3(C)C1CC2` (some centres unmarked) [Compound 8], the “Transport Mechanism Type 1 Vmax” value in the series with MCF-7 cells [1] is on record as 8.0 ± 2.1 pmol/mg/min. Besides, in the series with MCF-7 cells [1], the “Transport Mechanism Type 2 Vmax” value was 28.2 pmol/mg/min and 28.2 ± 0.1 pmol/mg/min. The Km in the series on MCF-7 cells [1] (setting [4]) worked out at 10.9 µM; with MCF-7 cells [1] (setting [5]), 42.8 µM. Also, the “Cellular uptake at pH 5.5 compared to pH 7.4” value in the series with MCF-7 cells [3] is “increased the uptake of all neurosteroids, except of compound 8”.

`C[C@@]12CCCC1C1CC[C@@H]3C[C@H](NC(=O)CCCC(=O)O)CC[C@]3(C)C1CC2` (some centres unmarked) [Compound 9]: in the series with MCF-7 cells [1], the “Transport Mechanism Type 1 Vmax” value is reported as 5.5 ± 0.6 pmol/mg/min. In addition, the “Transport Mechanism Type 2 Vmax” value with MCF-7 cells [1] stood at 26.5 ± 3.0 pmol/mg/min. Also, the Michaelis constant (Km) with MCF-7 cells [1] (setting [4]) was 9.2 µM; in the series with MCF-7 cells [1] (setting [5]) it was 67.8 µM.

`CC(C)(C)OC(=O)N[C@@H](CCC(=O)O)C(=O)N[C@@H]1CC[C@]2(C)C3CC[C@]4(C)CCCC4C3CC[C@@H]2C1` (some centres unmarked) [Compound 10]: the Michaelis constant (Km) with MCF-7 cells [1] (setting [4]) is 23 µM; with MCF-7 cells [1] (setting [5]), 282 µM.

Regarding `C[C@@]12CCCC1C1CC[C@@H]3C[C@H](NC(=O)[C@@H](N)CCC(=O)O)CC[C@]3(C)C1CC2` (some centres unmarked) [Compound 11], in the series on MCF-7 cells [1], the “Transport Mechanism Type 1 Vmax” value is reported as 17.2 ± 2.1 pmol/mg/min. Besides, the Km in the series with MCF-7 cells [1] (setting [4]) worked out at 24.2 µM.

`C[C@]12CC[C@@H]3c4ccc(OS(=O)(=O)O)cc4CC[C@H]3[C@@H]1CCC2=O` [Compound E3S, Estrone-3-Sulfate]: in the series on OATP1A2, the Km was 6.5 µM, the Vmax is given as 66 ± 8.5 and the efficacy is reported as 10.21.

The values above are taken from article PMC8472597, “Neurosteroids: Structure-Uptake Relationships and Computational Modeling of Organic Anion Transporting Polypeptides (OATP)1A2” (Molecules, 2021).
